Data set [1] concerns Panicum maximum (guineagrass, PANMA). The experiment in a line: greenhouse test of rainfastness of glyphosate formulations (Example 4). Particulars: 1.68 kg a.e./ha, formulation 18.4% glyphosate a.e., 7% cocoamine quat 2EO, 10.2% nonionic surfactant. The data set is classed as in vivo. As for the experimental part:
(§1) Comparative herbicidal activity with and without simulated rain was determined in greenhouse and field tests. For greenhouse tests, seeds or propagules of selected species were planted in 10.2 cm square pots of soil with added fertilizer. Temperature and relative humidity were allowed to fluctuate within limits defined for each test described in the following Examples. Plants were allowed to grow until the desired growth stage or size (defined for each test) for spraying. Pots were selected for uniformity before treatment and three replicate pots were assigned to each treatment. Spray solutions were prepared by dilution or dissolution of concentrate herbicide formulations in water. When desired to test "tank mix" application of surfactant compositions, these were added to the spray solution at the required concentration. Spraying was performed with a device which simulates agricultural field spraying equipment, delivering a fine spray at a pressure of about 207 kilopascals. Speed of travel of the spray device over the plants was adjusted to give the desired spray volume (defined for each test). For logistical reasons, all three replicates of each treatment were sprayed together. "Rain" treatments were applied by repeated passage of a coarse spray of water over the plants at some desired period of time after herbicide spraying. The amount and duration of "rain" were noted. After spraying and "rain" treatment, the plants were returned to the greenhouse. Herbicidal efficacy was evaluated by visual assessment at one or more selected time periods after treatment and recorded as "percent control" on an arbitrary scale by comparison with untreated plants. On this scale 0 means no visible effect and 100 means death of all plants. In the Examples, percent control values given are the means of three replicates.
Aqueous concentrate formulations of the isopropylamine salt of glyphosate were prepared at a glyphosate a.e. loading of 18.4% (equivalent to about 200 g a.e./liter). All contained 7% cocoamine quat 2EO and 10.2% nonionic surfactant. Formulations of the present invention contained as the nonionic one of several secondary alcohol ethoxylates; other formulations were made containing nonionics such as Silwet L-77, 2,4,7,9-tetramethyl-5-decyne-4,7-diol 10EO, nonylphenol 8EO, 10EO and 12EO and C12-15 primary alcohol 7EO, 9EO and 12EO. These formulations were tested for rainfastness in a greenhouse test.
The test species was Panicum maximum (guineagrass, PANMA). All glyphosate formulations were applied at 1.68 kg a.e./ha (1.5 lb a.e./acre) in a spray volume of 185 l/ha (20 gallons/acre). Commercial Roundup herbicide was included as a standard. Simulated rain was applied in the amount of 6 mm over a period of 15 minutes, beginning 1 hour after glyphosate treatment.

The subject of data set [2] is Elymus repens (quackgrass, AGRRE). The data set can be described thus: greenhouse test of rainfastness of glyphosate formulations (Example 5). In kind it is in vivo. The conditions noted are these: formulation 31% glyphosate a.e., 7.5% cocoamine quat 2EO, 8.6% nonionic surfactant. As for the experimental part:
as §1
Aqueous concentrate formulations of the isopropylamine salt of glyphosate were prepared at a glyphosate a.e. loading of 31% (equivalent to about 360 g a.e./liter). All contained 7.5% cocoamine quat 2EO and 8.6% nonionic surfactant. Formulations of the present invention contained as the nonionic C11-15 secondary alcohol 9EO or C12 branched secondary alcohol 10EO; for comparison, other formulations were made containing nonionics disclosed as rainfastness aids in the prior art such as 2,4,7,9-tetramethyl-5-decyne-4,7-diol 10EO or nonylphenol 8EO. These formulations were tested for rainfastness in a greenhouse test.
The test species was Elymus repens (quackgrass, AGRRE). All glyphosate formulations were applied at both 0.84 and 1.68 kg a.e./ha (0.75 and 1.5 lb a.e./acre) in a spray volume of 20 gallons/acre (187 l/ha. Commercial Roundup herbicide was included as a standard. Simulated rain was applied in the amount of 6 mm over a period of 15 minutes, beginning 1 hour after glyphosate treatment. Data on percent inhibition without and with "rain" are presented in Table 6. Table 6

For a further data set, the system named is barley cv. Pennco. The experiment in a line: short-term whole plant assay, barley regrowth after glyphosate treatment and trimming (Examples 7-8). The data set is classed as in vivo. Particulars: T/Am 5 0, S/Al 9 0 % w/v, 7 days after treatment. The source says: In Examples 7 and 8, a short-term whole plant assay was used to evaluate relative efficacy of aqueous glyphosate compositions containing tallowamine 5EO and C11-15 secondary alcohol 9EO in different concentrations and proportions relative to one another.
Equal volumes of uniformly sized seeds (20-25 in number) of barley cv. Pennco were sown in a growing medium consisting of a 3:2:1 sand/soil/peat mixture in 4 inch square plastic pots. Pots were placed in a controlled environment growth chamber providing a 14 hour photoperiod, day and night temperatures of 78°F and 66°F respectively, and a relative humidity in the range from 30% to 50%. Light was provided by a combination of metal halide and sodium vapor lamps. All pots were bottom watered at 1200 hr on the first day, resulting in rapid saturation of the growing medium. Seedling emergence occurred on the third and fourth days. On the seventh day, all pots were fertilized by bottom watering with a Peters 20-20-20 fertilizer containing 475 ppm soluble nitrogen.
On the eighth day, pots were sorted into 6 replicate blocks according to plant size. Treatments, including no-treatment controls, were randomly assigned within each block, one treatment per pot.
Plants were treated with glyphosate compositions in rapid succession between 0830 hr and 0900 hr on the ninth day, when average plant height was 13-15 cm and the second leaf was just beginning to elongate. Compositions were applied using a calibrated single-nozzle track sprayer delivering 187 l/ha through a Teejet 8001E nozzle at 276 kilopascals. Plants were removed from the growth chamber immediately before treatment and returned to the same growth chamber immediately after treatment. Pots were spatially arranged in a randomized complete block experimental design. At 6 hours after treatment plants in all pots were trimmed by cutting to 20 mm above the top edge of the pot. This removed approximately 90% of the barley leaf area. Pots were bottom watered once daily for the remainder of the study. Data collection took place on the sixteenth day, 7 days after treatment.
Average height of barley regrowth in each pot was measured to the nearest 5 mm increment, from the earlier cutting height 20 mm above the edge of the pot. All plants in each pot were then cut at 20 mm above the edge of the pot and total fresh weight was recorded.
All compositions in this Example contained glyphosate as the isopropylamine salt at a concentration calculated to deliver 0.42 kg a.e./ha. Polyoxyethylene tallowamine 5EO (T/Am 5) concentration was varied independently of C11-15 secondary alcohol 9EO (S/Al 9) concentration as will be clear from the tables below. […]

Data set [3] in a line: cloud point of aqueous concentrate glyphosate formulations (Examples 2 and 3). The data set is classed as physicochemical. Particulars: 31% glyphosate a.e. as isopropylamine salt. How it is done:
Aqueous concentrate formulations of the isopropylamine salt of glyphosate were prepared at a glyphosate a.e. loading of 31% (equivalent to about 360 g a.e./liter). All contained 3.5% cocoamine quat 2EO. Secondary alcohol ethoxylates of the invention were included at a range of levels and cloud point of the formulation was determined. To measure cloud point, a sample of each formulation in a test tube was heated in a water bath until it became cloudy. The test tube was then removed from the water bath and the sample stirred with a thermometer until it became clear. The temperature at which the sample became clear was recorded as the cloud point of the formulation.
Aqueous concentrate formulations of the isopropylamine salt of glyphosate were prepared at the same glyphosate a.e. loading as in Example 2, but containing higher levels of cocoamine quat 2EO. Secondary alcohol ethoxylates of the invention were included at a range of levels and cloud point of the formulation was determined by the same procedure as in Example 2.

Setting [4] is: Rain 6 mm over 15 minutes, 1 hour after treatment.
The mark [5] stands for this setting: 0.84 kg a.e./ha, Rain 6 mm over 15 minutes, 1 hour after treatment.
The mark [6] stands for this setting: 1.68 kg a.e./ha, Rain 6 mm over 15 minutes, 1 hour after treatment.
Where [7] appears, read: averaged over glyphosate 0.07, 0.14 and 0.28 kg a.e./ha.
[8] abbreviates: 4% secondary alcohol, 3.5% cocoamine quat 2EO.
Setting [9] is: 5% secondary alcohol, 3.5% cocoamine quat 2EO.
Where [10] appears, read: 5% secondary alcohol, 5% cocoamine quat 2EO.
[11] abbreviates: 6% secondary alcohol, 3.5% cocoamine quat 2EO.
Where [12] appears, read: 6% secondary alcohol, 5% cocoamine quat 2EO.
[13] abbreviates: 7% secondary alcohol, 3.5% cocoamine quat 2EO.
Where [14] appears, read: 7% secondary alcohol, 5% cocoamine quat 2EO.
Setting [15] is: 8% secondary alcohol, 5% cocoamine quat 2EO.

Bounds are passed on as bounds.

As for nonylphenol 8EO, the “Percent inhibition of guineagrass 15 DAT” value turned out to be 100% in data set [1] (No rain) and 97% in data set [1] (setting [4]). In addition, the “Percent inhibition of quackgrass 28 DAT” value is reported as 97% in data set [2] (0.84 kg a.e./ha, No rain); 83% in data set [2] (setting [5]); 98% in data set [2] (1.68 kg a.e./ha, No rain); 79% in data set [2] (setting [6]).

On to nonylphenol 10EO, for which the “Percent inhibition of guineagrass 15 DAT” value in data set [1] (No rain) is recorded as 100%; in data set [1] (setting [4]), 81%.

As for “2,4,7,9-tetramethyl-5-decyne-4,7-diol 10EO [Adjuvant 2]”, the “Percent inhibition of guineagrass 15 DAT” value in data set [1] (No rain) was 98%; in data set [1] (setting [4]), 94%. The “Percent inhibition of quackgrass 28 DAT” value is 94% in data set [2] (0.84 kg a.e./ha, No rain); 78% in data set [2] (setting [5]); 98% in data set [2] (1.68 kg a.e./ha, No rain); 94% in data set [2] (setting [6]).

As for `O=C(O)CNCP(=O)(O)O` [glyphosate, N-phosphonomethylglycine], the “Mean fresh weight of regrowth” value in the data set on barley cv. Pennco (setting [7]) was found to be 2.83 g; in the data set with barley cv. Pennco (glyphosate 0.42 kg a.e./ha), 1.92 g. In addition, the “Mean height of regrowth” value came to 171 mm in the data set on barley cv. Pennco (setting [7]) and 148 mm in the data set on barley cv. Pennco (glyphosate 0.42 kg a.e./ha).

Consider nonylphenol 12EO, for which the “Percent inhibition of guineagrass 15 DAT” value in data set [1] (No rain) stood at 100%; in data set [1] (setting [4]), 63%.

For the compound “C12 branched secondary alcohol 6EO [C12 branched 6EO]”, the Cloud points in data set [3] (setting [8]) is more than 95 °C; in data set [3] (setting [9]) it was more than 95 °C; in data set [3] (setting [10]), more than 95 °C; in data set [3] (setting [11]) it was less than 25 °C; in data set [3] (setting [12]) it was less than 25 °C; in data set [3] (setting [13]) it was less than 25 °C. In addition, the Cloud points in data set [3] (setting [14]) and in data set [3] (setting [15]) was less than 25 °C in each case. Further, the “Percent inhibition of guineagrass 15 DAT” value in data set [1] (No rain) stood at 100%; in data set [1] (setting [4]) it was 66%.

With “C12 branched secondary alcohol 10EO [C12 branched 10EO]”, the Cloud points was more than 95 °C in data set [3] (setting [8]); 80 °C in data set [3] (setting [9]); 80 °C in data set [3] (setting [10]); 72 °C in data set [3] (setting [11]); 68 °C in data set [3] (setting [12]); 65 °C in data set [3] (setting [13]). For the same compound, the Cloud points in data set [3] (setting [14]) worked out at 65 °C; in data set [3] (setting [15]) it was 61 °C. Further, the “Percent inhibition of guineagrass 15 DAT” value in data set [1] (No rain) is on record as 100%; in data set [1] (setting [4]) it was 98%. Moreover, the “Percent inhibition of quackgrass 28 DAT” value in data set [2] (0.84 kg a.e./ha, No rain) was 94%; in data set [2] (setting [5]), 84%; in data set [2] (1.68 kg a.e./ha, No rain), 100%; in data set [2] (setting [6]) it was 88%.
